In patent US20240124445A1, “BENZENE RING COMPOUND AND USE THEREOF” (NANJING SHIJIANG MEDICINE TECHNOLOGY CO., LTD, priority 2020, published 2024):
Read-outs that look alike come from different tables or passages of the source.

Test system: NCI-H82 cell
Assay: Cell viability (Promega CellTiter-Glo) of NCI-H82 cell
Type: cell-based
Details: Homo sapiens
Procedure: Cell viability was detected using the Promega CellTiter-Glo kit, the kit reflected cell viability by directly measuring intracellular ATP content. Small cell lung cancer cell NCI-H82 (ATCC, No. HTB-175) was cultured in 10% fetal bovine serum-containing RPMI1640 medium (+P/S).
Cell viability was detected using the Promega CellTiter-Glo kit, the kit reflected cell viability by directly measuring intracellular ATP content.
Daoy cell was cultured in 10% fetal bovine serum-containing DMEM medium (+P/S), and NCI-H82 cell was cultured in 10% fetal bovine serum-containing RPMI1640 medium (+P/S).
Cell viability was detected using the Promega CellTiter-Glo kit, the kit reflected cell viability by directly measuring intracellular ATP content. In the experiment, the IC50 value of different compounds on different tumor cell lines was detected to determine cell lines that were sensitive or insensitive to different compounds.
Tumor cells were cultured in 10% FBS-containing medium (+p/s), and incubated for 3 h or the following day, then the gradient diluted compound was added. After 3 days of culture, the relevant IC50 (50% inhibiting concentration) was measured. The name, source and culture conditions of each tumor cell line were as follows:
Cell line NCI-H82 (ATCC, No. HTB-175) was cultured in 10% fetal bovine serum-containing RPMI1640 medium (+P/S).

[1] = NCI-H82 cell, Table 1, read-out: IC50

Row | SMILES | IC50 [1] [nM] | IC50 (NCI-H82) [nM]
1 | O=C(C[n+]1ccc2c(Cc3ccccc3)c[nH]c2c1)c1ccc(Cl)cc1 [AB24835A] | – | 2750
2 | Cc1ccc2c(c1)CCC([n+]1ccc(NCc3ccccc3)cc1)C2=O (stereo not shown) [AB24917] | 120 | –
3 | O=C(C[n+]1ccc(NCc2ccccc2)cc1)c1ccc(Cl)nc1 [AB24817] | 4610 | –
4 | Cc1ccc2c(c1)C(=O)C([n+]1ccc(NCc3ccccc3)cc1)CC2 (stereo not shown) [AB24916] | 380 | –
5 | Cc1ccc(C(=O)C[n+]2ccc3c(ccn3Cc3ccccc3)c2)cc1 [AB24887] | 290 | –
6 | O=C1c2ncccc2CCC1[n+]1ccc(NCc2ccccc2)cc1 (stereo not shown) [AB24923] | 6850 | –
7 | O=C(C[n+]1ccc2c(c1)CCC(c1ccccc1)N2)c1ccc(Cl)cc1 (stereo not shown) [AB24838] | 710 | –
8 | Cc1ccc(C(=O)C[n+]2ccc3c(-c4cccc(C)c4)c[nH]c3c2)cc1 [AB24872] | 1240 | –
9 | COc1ccc(C(=O)C[n+]2ccc(NCc3ccccc3)cc2)cc1 [AB24803A] | 230 | –
10 | O=C(C[n+]1ccc2[nH]c(Cc3ccccc3)cc2c1)c1ccc(Cl)cc1 [AB24827A] | – | 2890
11 | O=C(Nc1ccc([N+](=O)[O-])cc1)c1ccc(NCc2ccccc2)cc1 [AB24883] | 6370 | –
12 | Cc1ccc(C(=O)C[n+]2ccc3c(Cc4ccccc4)c[nH]c3c2)cc1 [AB24859] | 2290 | –
13 | CC(Nc1cc[n+](CC(=O)c2ccc(Cl)cc2)cc1)c1ccccc1 (stereo not shown) [AB24814] | 5540 | –
14 | O=C(C[n+]1ccc2c(c1)C=CCC(c1ccccc1)N2)c1ccc(Cl)cc1 (stereo not shown) [AB24839B] | 9130 | –
15 | O=C(C[n+]1ccc(NCc2ccccn2)cc1)c1ccc(Cl)cc1 [AB24822] | 6700 | –
16 | O=C(C[n+]1ccc2c(-c3ccccc3)n[nH]c2c1)c1cccc([N+](=O)[O-])c1 [AB24898] | 6280 | –

The next lines start with results.

Row | IC50 [1] [nM] | SMILES | IC50 (NCI-H82) [nM]
17 | 3930 | O=C(C[n+]1ccc2[nH]c(Cc3ccccc3)cc2c1)c1ccc(C(F)(F)F)cc1 [AB27114] | –
18 | 100 | Cc1cn(Cc2ccccc2)c2cc[n+](C3CCc4ccc(C(F)(F)F)cc4C3=O)cc12 (stereo not shown) [AB27174] | –
19 | 680 | O=C1c2ccc(F)cc2CCC1[n+]1ccc(NCc2ccccc2)cc1 (stereo not shown) [AB24949] | –
20 | 720 | O=C1c2ccc(C(F)(F)F)cc2CCC1[n+]1ccc2c(c1)CCC(c1ccccc1)N2 (stereo not shown) [AB27104] | –
21 | 100 | O=C1c2cc(F)ccc2CCC1[n+]1ccc(NCc2ccccc2)cc1 (stereo not shown) [AB24948] | –
22 | 320 | Cc1ccc(C(=O)C[n+]2ccc(NCc3ccccc3)c(C)c2)cc1 [AB27169] | –
23 | 770 | Cc1ccc(C(=O)C[n+]2ccc(N3Cc4ccccc4C3)cc2)cc1 [AB24956] | –
24 | 280 | CC(c1ccccc1)n1ccc2c[n+](C3CCc4ccc(C(F)(F)F)cc4C3=O)ccc21 (stereo not shown) [AB27161] | –
25 | 150 | Cc1ccc2c(c1)C(=O)C([n+]1ccc3c(ccn3C(C)c3ccccc3)c1)CC2 (stereo not shown) [AB27163] | –
26 | 850 | O=C1c2ccc(OC(F)(F)F)cc2CCC1[n+]1ccc(NCc2ccccc2)cc1 (stereo not shown) [AB27111] | –
27 | 4110 | Cc1ccc(C(=O)C[n+]2ccc(N3CCc4ccccc4C3=O)cc2)cc1 [AB24959] | –
28 | 3960 | O=C1c2cnccc2CCC1[n+]1ccc(NCc2ccccc2)cc1 (stereo not shown) [AB24924] | –
29 | 1300 | O=C(C[n+]1ccc2c(c1)CC(c1ccccc1)N2)c1ccc(OC(F)(F)F)cc1 (stereo not shown) [AB24999] | –
30 | 260 | Cc1cc2c[n+](C3CCc4ccc(Cl)cc4C3=O)ccc2n1Cc1ccccc1 (stereo not shown) [AB27129] | –
31 | 3960 | CC(C)c1c[nH]c2c[n+](CC(=O)c3cccc(Cl)c3)ccc12 [AB24938] | –
32 | 870 | Cn1ccc2c[n+](C3CCc4ccc(OC(F)(F)F)cc4C3=O)ccc21 (stereo not shown) [AB27154] | –
33 | 1720 | Cc1ccc(Cc2c[nH]c3c[n+](CC(=O)c4ccc(C(F)(F)F)cc4)ccc23)cc1 [AB27118] | –
34 | 1060 | Cc1ccc(C(=O)C[n+]2ccc(N3CCc4ccccc4C3)cc2)cc1 [AB24957] | –
35 | 2800 | Cc1ccc(C(=O)C[n+]2ccc(N(C)Cc3ccccc3)cc2)cc1 [AB24955] | –
36 | 410 | CC(c1ccccc1)n1ccc2c[n+](C3CCc4ccc(Cl)cc4C3=O)ccc21 (stereo not shown) [AB27165] | –
37 | 390 | COc1cccc2c1CCC([n+]1ccc(NCc3ccccc3)cc1)C2=O (stereo not shown) [AB24954] | –
